Here are results for two molecules from patent US8445502B2, “Pharmaceutical formulations comprising salts of a protein kinase inhibitor and methods of using same” (Astex Pharmaceuticals, Inc., priority 2007, dated 2013).

The conditions of data set [1]: both, beagle, dog, in vivo, 5 days. As to the method:
In the first study, 2 doses of MP470 were tested, a low dose of 10 mg/kg followed 48 hours later by a dose of 20 mg/kg. Dosage escalation stopped after the 20 mg/kg dose due to observations of adverse clinical signs. After the second dose, the animals were observed everyday for 3 additional days for adverse clinical signs. Over the course of the 5 days of study both dogs gained weight. […] The female dog experienced retching immediately after dosing. Upon administration of the 20 mg/kg dose both the female and male dog experienced unacceptable adverse effects. After three more days of observation both dogs were euthanized and necropsy was performed. The necropsy observations considered abnormal include thrombus observed in the dosing veins of both dogs and possible mild venous congestion in the meningeal vein between brain hemispheres and in the venous sinus on cranial floor of the male animal. From this study the maximally tolerated dose in beagle dogs was determined to be 20 mg/kg.

The conditions of data set [2]: both, Sprague Dawley, rat, in vivo, 72 h. As for the experimental part: Four groups of Sprague Dawley rats, each consisting of two males and two females, received escalating single doses of 100, 200, 800 and 2000 mg/kg of the test article. MP470.HCl was suspended in an aqueous vehicle constituting 0.5% w/v carboxymethylcellulose and administered by oral gavage. […] Doses were based on body weights on the day of dosing. The animals were euthanized after the last observation. […] A single oral dose no-observed-effect level (NOEL) was 2000 mg/kg. Acute maximum tolerated dose (MTD) was greater than 2000 mg/kg (highest dose tested).

For data set [3], the system named is OVCAR-3 ovarian cancer cells. Put plainly: OVCAR-3 ovarian cancer tumor model in nude mice. Type of data set: in vivo. As for the experimental part: MP470 and MP470 HCl were tested against different tumor types in athymic nude mice as summarized below (Table 8). Various formulations and routes were evaluated. HT-29 colorectal cancer cells and SB-CL2 melanoma cells were implanted subcutaneously, while A549 lung cancer cells, MiaPaCa-2 pancreatic cancer cells, TT medullary thyroid cancer cells, and OVCAR-3 ovarian cancer cells were implanted […] in the hind flank of mice. All animals were allowed to develop medium-sized (80-125 mg) tumors, before initiation of dosing. Tumor volume and mouse bodyweight were followed over the course of the study.
OVCAR-3 Ovarian Cancer Model—Forty-two nude mice were implanted subcutaneously with OVCAR-3 ovarian carcinoma, the hydrochloride salt of MP470 (MP470.HCl) was formulated in 100% corn oil and delivered orally. MP470.HCl, cisplatin, and irinotecan were administered to animals alone or in combination. When administered alone, MP470.HCl was given qd at 100 or 200 mg/kg, irinotecan was given q3d at 20 mg/kg, and cisplatin was given q7d at 5 mg/kg. In combination studies, 100 mg/kg MP470.HCl was given qd and combined with 20 mg/kg irinotecan given q3d or 5 mg/kg cisplatin given q7d. One animal in the 200 mg/kg MP470.HCl group died on Day 1, while five animals in the MP470.HCl/cisplatin combination group died (one on Day 5, Day 6, Day 7, Day, 20, and Day 27). Treatment with each individual agent (200 mg/kg MP470.HCl, 46.2 mm3/d; 20 mg/kg irinotecan, 38.53 mm3/d; 5 mg/kg cisplatin, 33.8 mm3/d) reduced the tumor growth rate below that of vehicle-treated mice (78.04 mm3/d). […] In contrast, when MP470.HCl and cisplatin were used in combination, the tumor growth rate was reduced to 10.22 mm3/d. However, the 100 mg/kg dose of MP470.HCl in combination with cisplatin caused enhanced toxicity and most animals in this group died during the 21-day treatment period. The enhanced toxicity was related to the level of the dose used, so a subsequent study was conducted using half the dose, 50 mg/kg/day as described below.

Data set [4] deals with NCI-H647 NSCLC cells. Put plainly: Sensitization of NSCLC cells to carboplatin. The settings on record: Homo sapiens; NCI-H647, single agent. In kind it is cell-based. As for the experimental part: (§1) The non-small cell lung cancer cell lines A549 and NCI-H647 were used for these experiments. […] The IC50 concentrations observed for carboplatin against both of these cell lines was consistent with this.
(§2) Two sub-IC50 doses of MP470.HCl were tested in combination with carboplatin to evaluate possible synergism between these agents and consequently a lower IC50 value for carboplatin in each of the cell lines.
(§3) MP470.HCl was able to dramatically decrease the IC50 of carboplatin in these cells.

In data set [5] the test system is A549 NSCLC cells. In words: Sensitization of NSCLC cells to carboplatin. The settings on record: Homo sapiens; A549, single agent. Type of data set: cell-based. As to the method:
as §1, §2, §3

pIC50: −log10 of the molar value.

As for `S=C(NCc1ccc2c(c1)OCO2)N1CCN(c2ncnc3c2oc2ccccc23)CC1` [MP470, 4-[1]benzofuro[3,2-d]pyrimidin-4-yl-N-(1,3-benzodioxol-5-ylmethyl)piperazine-1-carbothioamide], the maximally tolerated dose in data set [1] turned out to be 20 mg/kg.

With `Cl.S=C(NCc1ccc2c(c1)OCO2)N1CCN(c2ncnc3c2oc2ccccc23)CC1` [MP470.HCl, 4-[1]benzofuro[3,2-d]pyrimidin-4-yl-N-(1,3-benzodioxol-5-ylmethyl)piperazine-1-carbothioamide hydrochloride], the “single oral dose no-observed-effect level (NOEL)” value in data set [2] turned out to be 2000 mg/kg. In addition, in data set [2] (po), the “Acute maximum tolerated dose (MTD)” value was “greater than 2000 mg/kg”. Besides, the animals that died entry in data set [3] (200 mg/kg MP470.HCl group, Day 1) is on record as “One”. For the same molecule, the tumor growth rate in data set [3] (200 mg/kg qd oral in corn oil (vehicle 78.04)) is 46.2 mm3/d. Further, in data set [3] (OVCAR-3, PO 100 or 200 mg/kg, qd × 28, corn oil, hydrochloride), the “Outcome: tumor growth” value is reported as “Dose dependency”. In addition, the pIC50 in data set [4] is 5.10; in data set [5] it was 5.16.
